Results published in patent publication US20080153896A1, “Polymorphic Forms of an HMG-CoA Reductase Inhibitor and Uses Thereof” (priority 2006, published 2008).

Experiment: Stability (integrity) testing of amorphous and polymorphic form under storage conditions, RP-HPLC
Format: physicochemical
Parameters: key to Impurity RRT 0.738 / Impurity RRT 0.949 / Impurity RRT 1.050 / Impurity RRT 1.550 / Impurity RRT 0.136 / Impurity RRT 0.720 / Impurity RRT 0.706 / Impurity RRT 1.18 / Impurity RRT 1.826: % of total UV absorption (HPLC peak area); Impurity RRT 1.104 / Impurity RRT 1.698: unit not given beside the values
Settings: for Total: in %
Method: The integrity of the different forms of the (3R, 5R)-7-[2-(4-fluorophenyl)-5-isopropyl-3-phenyl-4-[(4-hydroxymethylphenylamino)carbonyl]-pyrrol-1-yl]-3,5-dihydroxy-heptanoic acid, hemi calcium salt, was tested under different atmospheric conditions to determine the stability of the amorphous and polymorphic form of the drug in various storage environments. Reversed Phase-HPLC (RP-HPLC) was used to separate (3R, 5R)-7-[2-(4-fluorophenyl)-5-isopropyl-3-phenyl-4-[(4-hydroxymethylphenylamino)carbonyl]-pyrrol-1-yl]-3,5-dihydroxy-heptanoic acid, hemi calcium salt, from smaller molecules representing breakdown products as well as oxidized drug. The relative amount of the drug was reported as a percent of total absorption by UV. The total peak area of all UV absorption impurities was used to define total impurity of the drug. Impurities are defined by their relative retention time (RRT) compared to native drug. Samples were injected onto a C18 column using standard temperature, gradient and run-time conditions.
The results of this integrity testing for the amorphous form of (3R, 5R)-7-[2-(4-fluorophenyl)-5-isopropyl-3-phenyl-4-[(4-hydroxymethylphenylamino)carbonyl]-pyrrol-1-yl]-3,5-dihydroxy-heptanoic acid, hemi calcium salt, is shown in Table 5.
Three separate batches of polymorphic Form I of (3R, 5R)-7-[2-(4-fluorophenyl)-5-isopropyl-3-phenyl-4-[(4-hydroxymethylphenylamino)carbonyl]-pyrrol-1-yl]-3,5-dihydroxy-heptanoic acid, hemi calcium salt, were prepared and tested under the same atmospheric conditions described for the amorphous form.

CC(C)c1c(C(=O)Nc2ccc(CO)cc2)c(-c2ccccc2)c(-c2ccc(F)cc2)n1CC[C@@H](O)C[C@@H](O)CC(=O)[O-].CC(C)c1c(C(=O)Nc2ccc(CO)cc2)c(-c2ccccc2)c(-c2ccc(F)cc2)n1CC[C@@H](O)C[C@@H](O)CC(=O)[O-].[Ca+2] [PP00204, (3R, 5R)-7-[2-(4-fluorophenyl)-5-isopropyl-3-phenyl-4-[(4-hydroxymethylphenylamino)carbonyl]-pyrrol-1-yl]-3,5-dihydroxy-heptanoic acid, hemi calcium salt]
Impurity RRT 0.731 (5° C. 1 month): 0.030 | Impurity RRT 0.832 (5° C. 1 month): 0.034 | Impurity RRT 0.876 (5° C. 1 month): 0.150 | Impurity RRT 0.952 (5° C. 1 month): 0.040 | Impurity RRT 0.965 (5° C. 1 month): 0.532 | Impurity RRT 0.974 (5° C. 1 month): 0.052 | Impurity RRT 0.991 (5° C. 1 month): 0.022 | Impurity RRT 1.024 (5° C. 1 month): 0.459 | Impurity RRT 1.041 (5° C. 1 month): 0.585 | Total (5° C. 1 month): 1.904 | Impurity RRT 0.885 (5° C. 2 months): 0.177 | Impurity RRT 0.952 (5° C. 2 months): 0.048 | Impurity RRT 0.965 (5° C. 2 months): 0.501 | Impurity RRT 0.974 (5° C. 2 months): 0.067 | Impurity RRT 0.991 (5° C. 2 months): 0.029 | Impurity RRT 1.024 (5° C. 2 months): 0.508 | Impurity RRT 1.041 (5° C. 2 months): 0.604 | Total (5° C. 2 months): 1.934 | Impurity RRT 0.892 (5° C. 3 months): 0.161 | Impurity RRT 0.965 (5° C. 3 months): 0.550 | Impurity RRT 0.981 (5° C. 3 months): 0.058 | Impurity RRT 1.024 (5° C. 3 months): 0.506 | Impurity RRT 1.041 (5° C. 3 months): 0.635 | Total (5° C. 3 months): 1.91 | Impurity RRT 0.731 (5° C. 6 months): 0.037 | Impurity RRT 0.832 (5° C. 6 months): 0.028 | Impurity RRT 0.876 (5° C. 6 months): 0.014 | Impurity RRT 0.892 (5° C. 6 months): 0.016 | Impurity RRT 0.952 (5° C. 6 months): 0.024 | Impurity RRT 0.965 (5° C. 6 months): 0.552 | Impurity RRT 1.024 (5° C. 6 months): 0.582 | Impurity RRT 1.041 (5° C. 6 months): 0.592 | Impurity RRT 1.074 (5° C. 6 months): 0.028 | Total (5° C. 6 months): 1.873 | Impurity RRT 0.885 (25° C./60% RH 3 months): 0.145 | Impurity RRT 0.892 (25° C./60% RH 3 months): 0.212 | Impurity RRT 0.965 (25° C./60% RH 3 months): 0.542 | Impurity RRT 0.981 (25° C./60% RH 3 months): 0.058 | Impurity RRT 1.024 (25° C./60% RH 3 months): 0.518 | Impurity RRT 1.041 (25° C./60% RH 3 months): 0.648 | Total (25° C./60% RH 3 months): 2.123 | Impurity RRT 0.731 (25° C./60% RH 6 months): 0.031 | Impurity RRT 0.832 (25° C./60% RH 6 months): 0.029 | Impurity RRT 0.876 (25° C./60% RH 6 months): 0.133 | Impurity RRT 0.892 (25° C./60% RH 6 months): 0.124 | Impurity RRT 0.952 (25° C./60% RH 6 months): 0.037 | Impurity RRT 0.965 (25° C./60% RH 6 months): 0.546 | Impurity RRT 1.024 (25° C./60% RH 6 months): 0.618 | Impurity RRT 1.041 (25° C./60% RH 6 months): 0.593 | Impurity RRT 1.074 (25° C./60% RH 6 months): 0.068 | Impurity RRT 1.104 (25° C./60% RH 6 months): 0.037 | Total (25° C./60% RH 6 months): 2.216 | Impurity RRT 0.885 (30° C./55% RH 6 months): 0.187 | Impurity RRT 0.892 (30° C./55% RH 6 months): 0.168 | Impurity RRT 0.965 (30° C./55% RH 6 months): 0.699 | Impurity RRT 1.024 (30° C./55% RH 6 months): 0.693 | Impurity RRT 1.041 (30° C./55% RH 6 months): 0.777 | Impurity RRT 1.074 (30° C./55% RH 6 months): 0.103 | Impurity RRT 1.104 (30° C./55% RH 6 months): 0.032 | Total (30° C./55% RH 6 months): 2.659 | Impurity RRT 0.731 (30° C./65% RH 1 month): 0.038 | Impurity RRT 0.832 (30° C./65% RH 1 month): 0.037 | Impurity RRT 0.876 (30° C./65% RH 1 month): 0.145 | Impurity RRT 0.892 (30° C./65% RH 1 month): 0.038 | Impurity RRT 0.952 (30° C./65% RH 1 month): 0.042 | Impurity RRT 0.965 (30° C./65% RH 1 month): 0.512 | Impurity RRT 0.974 (30° C./65% RH 1 month): 0.054 | Impurity RRT 0.991 (30° C./65% RH 1 month): 0.018 | Impurity RRT 1.024 (30° C./65% RH 1 month): 0.464 | Impurity RRT 1.041 (30° C./65% RH 1 month): 0.587 | Impurity RRT 1.074 (30° C./65% RH 1 month): 0.021 | Total (30° C./65% RH 1 month): 1.956 | Impurity RRT 0.885 (30° C./65% RH 2 months): 0.154 | Impurity RRT 0.892 (30° C./65% RH 2 months): 0.119 | Impurity RRT 0.952 (30° C./65% RH 2 months): 0.050 | Impurity RRT 0.965 (30° C./65% RH 2 months): 0.505 | Impurity RRT 0.974 (30° C./65% RH 2 months): 0.042 | Impurity RRT 0.991 (30° C./65% RH 2 months): 0.022 | Impurity RRT 1.024 (30° C./65% RH 2 months): 0.524 | Impurity RRT 1.041 (30° C./65% RH 2 months): 0.611 | Total (30° C./65% RH 2 months): 2.027 | Impurity RRT 0.832 (30° C./65% RH 3 months): 0.046 | Impurity RRT 0.892 (30° C./65% RH 3 months): 0.184 | Impurity RRT 0.965 (30° C./65% RH 3 months): 0.542 | Impurity RRT 0.981 (30° C./65% RH 3 months): 0.057 | Impurity RRT 1.024 (30° C./65% RH 3 months): 0.516 | Impurity RRT 1.041 (30° C./65% RH 3 months): 0.638 | Total (30° C./65% RH 3 months): 1.983 | Impurity RRT 0.731 (40° C./75% RH 1 month): 0.039 | Impurity RRT 0.832 (40° C./75% RH 1 month): 0.034 | Impurity RRT 0.876 (40° C./75% RH 1 month): 0.125 | Impurity RRT 0.892 (40° C./75% RH 1 month): 0.055 | Impurity RRT 0.965 (40° C./75% RH 1 month): 0.526 | Impurity RRT 0.974 (40° C./75% RH 1 month): 0.071 | Impurity RRT 0.991 (40° C./75% RH 1 month): 0.024 | Impurity RRT 1.024 (40° C./75% RH 1 month): 0.464 | Impurity RRT 1.041 (40° C./75% RH 1 month): 0.565 | Impurity RRT 1.074 (40° C./75% RH 1 month): 0.032 | Total (40° C./75% RH 1 month): 1.955 | Impurity RRT 0.738 (40° C./75% RH 2 months): 0.042 | Impurity RRT 0.885 (40° C./75% RH 2 months): 0.159 | Impurity RRT 0.892 (40° C./75% RH 2 months): 0.127 | Impurity RRT 0.949 (40° C./75% RH 2 months): 0.063 | Impurity RRT 0.965 (40° C./75% RH 2 months): 0.547 | Impurity RRT 0.991 (40° C./75% RH 2 months): 0.027 | Impurity RRT 1.024 (40° C./75% RH 2 months): 0.543 | Impurity RRT 1.041 (40° C./75% RH 2 months): 0.622 | Impurity RRT 1.074 (40° C./75% RH 2 months): 0.077 | Total (40° C./75% RH 2 months): 2.207 | Impurity RRT 0.892 (40° C./75% RH 3 months): 0.189 | Impurity RRT 0.965 (40° C./75% RH 3 months): 0.548 | Impurity RRT 0.981 (40° C./75% RH 3 months): 0.065 | Impurity RRT 1.024 (40° C./75% RH 3 months): 0.515 | Impurity RRT 1.041 (40° C./75% RH 3 months): 0.632 | Impurity RRT 1.104 (40° C./75% RH 3 months): 0.074 | Total (40° C./75% RH 3 months): 2.023 | Impurity RRT 0.731 (40° C./75% RH 6 months): 0.031 | Impurity RRT 0.832 (40° C./75% RH 6 months): 0.031 | Impurity RRT 0.876 (40° C./75% RH 6 months): 0.152 | Impurity RRT 0.892 (40° C./75% RH 6 months): 0.19 | Impurity RRT 0.952 (40° C./75% RH 6 months): 0.022 | Impurity RRT 0.965 (40° C./75% RH 6 months): 0.497 | Impurity RRT 1.024 (40° C./75% RH 6 months): 0.460 | Impurity RRT 1.041 (40° C./75% RH 6 months): 0.573 | Impurity RRT 1.050 (40° C./75% RH 6 months): 0.094 | Impurity RRT 1.074 (40° C./75% RH 6 months): 0.025 | Impurity RRT 1.104 (40° C./75% RH 6 months): 0.037 | Total (40° C./75% RH 6 months): 2.112 | Impurity RRT 0.876 (Initial): 0.146 | Impurity RRT 0.965 (Initial): 0.560 | Impurity RRT 0.991 (Initial): 0.022 | Impurity RRT 1.024 (Initial): 0.464 | Impurity RRT 1.041 (Initial): 0.581 | Total (Initial): 1.703
